Laboratory results from US9034918B2, “Composition including at least one trans-cinnamaldehyde and the use thereof in the treatment of bacterial infections, specifically in the treatment of nosocomial infections” (SEPTEOS, priority 2009, dated 2015).

Assays:
Assay type in all cases: cell-based
[1] = test system: E. coli ATCC 25922; assay: Antibiogram by diffusion technique (CA-SFM 2008); set-up: Diameter (D): unit not given here
Text: Three clinical categories were selected for interpretation of the in vitro sensitivity tests: sensitive (S), resistant (R) and intermediate (I). • The strains categorized S are those for which the probability of therapeutic success is high in the case of treatment by systemic route with the dosing schedule recommended in the summary of product characteristics (SPC) prepared by the French Health Products Safety Agency ([…]). • The strains categorized R are those for which there is a high probability of therapeutic failure regardless of treatment type and antibiotic dose. • The strains categorized I are those for which therapeutic success cannot be predicted. These strains form a heterogeneous group for which the results obtained in vitro are not predictive of therapeutic success. […] The intermediate category is also a buffer zone which takes into account technical and biological uncertainties. The sensitivity of strains to antibiotics was determined by a diffusion technique according to the 2008 recommendations by the Antibiogram Committee of the French Microbiology Society (CA-SFM). In terms of critical concentrations and diameters, strains are categorized as follows: • sensitive (S): strains for which the MIC of the antibiotic tested is less than or equal to the lower critical concentration c, which is equivalent to a diameter greater than or equal to the critical diameter D; • resistant (R): strains for which the MIC of the antibiotic tested are greater than the upper critical concentration C, corresponding to a diameter less than the critical diameter d; • intermediate sensitivity (I): strains for which the MIC of the antibiotic tested and the corresponding diameter are between the two critical concentrations and the two critical diameters. The tests were carried out on Mueller-Hinton agar. An inoculum adjusted to 0.5 on the McFarland scale is then diluted to 1/100. Petri dishes are inoculated by swabbing. The dishes are read after 24 hours of incubation at 37° C. The raw results are then interpreted according to the interpretative reading rules of the CA-SFM. Two examples: all strains of methicillin-resistant Staphylococcus are resistant to all beta-lactams, and the same is true for gentamicin-resistant strains; golden staph is necessarily resistant to kanamycin (and amikacin) and tobramycin. The quality of the diffusion method is controlled using E. coli strain ATCC 25922.

[2] = test system: E. coli strain 8154; assay: Antibiogram by diffusion technique (CA-SFM 2008); set-up: D: unit not given here
Text: (§1) Three clinical categories were selected for interpretation of the in vitro sensitivity tests: sensitive (S), resistant (R) and intermediate (I). • The strains categorized S are those for which the probability of therapeutic success is high in the case of treatment by systemic route with the dosing schedule recommended in the summary of product characteristics (SPC) prepared by the French Health Products Safety Agency (AFSSAPS). • The strains categorized R are those for which there is a high probability of therapeutic failure regardless of treatment type and antibiotic dose. • The strains categorized I are those for which therapeutic success cannot be predicted. These strains form a heterogeneous group for which the results obtained in vitro are not predictive of therapeutic success. […] The intermediate category is also a buffer zone which takes into account technical and biological uncertainties.
(§2) The sensitivity of strains to antibiotics was determined by a diffusion technique according to the 2008 recommendations by the Antibiogram Committee of the French Microbiology Society (CA-SFM).
(§3) In terms of critical concentrations and diameters, strains are categorized as follows: • sensitive (S): strains for which the MIC of the antibiotic tested is less than or equal to the lower critical concentration c, which is equivalent to a diameter greater than or equal to the critical diameter D; • resistant (R): strains for which the MIC of the antibiotic tested are greater than the upper critical concentration C, corresponding to a diameter less than the critical diameter d; • intermediate sensitivity (I): strains for which the MIC of the antibiotic tested and the corresponding diameter are between the two critical concentrations and the two critical diameters.
(§4) The tests were carried out on Mueller-Hinton agar. An inoculum adjusted to 0.5 on the McFarland scale is then diluted to 1/100. Petri dishes are inoculated by swabbing. The dishes are read after 24 hours of incubation at 37° C.
(§5) The raw results are then interpreted according to the interpretative reading rules of the CA-SFM.

[3] = test system: E. coli strain 8155; assay: Antibiogram by diffusion technique (CA-SFM 2008); set-up: D: unit not given here
Text: as §1, §2, §3, §4, §5

[4] = test system: E. coli strain 8156; assay: Antibiogram by diffusion technique (CA-SFM 2008); set-up: D: unit not given here
Text: as §1, §2, §3, §4, §5

[5] = test system: E. coli strain 8157; assay: Antibiogram by diffusion technique (CA-SFM 2008); set-up: D: unit not given here
Text: as §1, §2, §3, §4, §5

[6] = test system: Pseudomonas aeruginosa strain 8128; assay: Antibiogram by diffusion technique (CA-SFM 2008); set-up: D: unit not given here
Text: as §1, §2, §3, §4, §5

[7] = test system: Pseudomonas aeruginosa strain 8129; assay: Antibiogram by diffusion technique (CA-SFM 2008); set-up: D: unit not given here
Text: as §1, §2, §3, §4, §5

[8] = test system: Pseudomonas aeruginosa strain 8132; assay: Antibiogram by diffusion technique (CA-SFM 2008); set-up: D: unit not given here
Text: as §1, §2, §3, §4, §5

[9] = test system: Pseudomonas aeruginosa strain 8134; assay: Antibiogram by diffusion technique (CA-SFM 2008); set-up: D: unit not given here
Text: as §1, §2, §3, §4, §5

[10] = test system: golden staph (S. aureus) strain 8147; assay: Antibiogram by diffusion technique (CA-SFM 2008); set-up: D: unit not given here
Text: as §1, §2, §3, §4, §5

[11] = test system: golden staph (S. aureus) strain 8239; assay: Antibiogram by diffusion technique (CA-SFM 2008); set-up: D: unit not given here
Text: as §1, §2, §3, §4, §5

[12] = test system: golden staph (S. aureus) strain 8240; assay: Antibiogram by diffusion technique (CA-SFM 2008); set-up: D: unit not given here
Text: as §1, §2, §3, §4, §5

[13] = test system: Enterococcus strain 8152; assay: Antibiogram by diffusion technique (CA-SFM 2008); set-up: Diameter: unit not given here
Text: as §1, §2, §3, §4, §5

[14] = test system: Enterococcus strain 8153; assay: Antibiogram by diffusion technique (CA-SFM 2008); set-up: Diameter: unit not given here
Text: as §1, §2, §3, §4, §5

[15] = test system: Enterococcus faecium (9001); assay: Antibiogram by diffusion technique (CA-SFM 2008); settings: strain 9001
Text: as §1, §2, §3, §4, §5

[16] = test system: strain 9007, Pseudomonas aeruginosa, with VIM-2 carbapenemase; assay: Antibiogram by diffusion technique (CA-SFM 2008)
Text: as §1, §2, §3, §4, §5

[17] = test system: strain 9010, Acinetobacter baumannii, with VEB-1 ESBL; assay: Antibiogram by diffusion technique (CA-SFM 2008)
Text: as §1, §2, §3, §4, §5

[18] = test system: Gram-positive bacteria and Gram-negative bacteria, resistant strains; assay: Agar test, summary over the strains tested; settings: also on resistant strains, low volume concentrations
Text: For bacteria to have good accessibility (aqueous phase multiplication only) to essential oils, it is essential to find a method of aqueous phase solubilization. This step is neglected in much work that directly uses the lipid phase, which is inaccessible to bacteria (oil-soaked disc placed on agar). Moreover, for the topical use of oils, this solubilization phase is also essential, and with the goal of practical application, surfactants and solubilization adjuvants are also selected for their satisfactory cutaneous tolerance.
The final preparation includes: 1.0 ml of essential oil, 3.4 ml of Tween 80 and 5.6 ml of 10% molar propylene glycol aqueous solution.
The day before the test, inoculate the strains in BH medium and on tilted MHA. Prepare test tubes containing 19 ml and 18 ml of MHA. Prepare test tubes containing 5 ml of 10% molar propylene glycol for the various dilutions.
On the day of the test, solubilize the trans-cinnamaldehyde as follows: • 1 ml of trans-cinnamaldehyde • 3.4 ml of Tween 80 • 5.6 ml of 10% molar propylene glycol.
When the trans-cinnamaldehyde is solubilized, prepare successive 1/2 dilutions in 10% molar propylene glycol.
Add 1 ml of suitable dilutions in the test tubes containing 19 ml of medium, homogenize well and pour into Petri dishes. […]

[19] = test system: E. coli strain 9003; assay: Antibiogram by diffusion technique (CA-SFM 2008)
Text: as §1, §2, §3, §4, §5

[20] = test system: Enterobacter aerogenes (9004); assay: Antibiogram by diffusion technique (CA-SFM 2008); settings: strain 9004
Text: as §1, §2, §3, §4, §5

Row | Molecule | Category (Cat.) [1] | Diameter (D) [1] | Cat. [2] | D [2] | Cat. [3] | D [3] | Cat. [4] | D [4] | Cat. [5] | D [5] | Cat. [6] | D [6] | Cat. [7] | D [7] | Cat. [8] | D [8] | Cat. [9] | D [9] | Cat. [10] | D [10] | other results
1 | C[C@H]1COc2c(N3CCN(C)CC3)c(F)cc3c(=O)c(C(=O)O)cn1c23 [Levofloxacin] | S | 31 | S | 36 | S | 31 | S | 31 | R | 11 | S | 23 | S | 26 | R | 0 | R | 0 | R | 10 | Cat. [11]: R; D [11]: 10; Cat. [12]: R; D [12]: 0; Category [13]: S; Diameter [13]: 29; Category [14]: S; Diameter [14]: 26; Category [15]: R; Category [16]: S; Category [17]: R
2 | O=C/C=C/c1ccccc1 [trans-cinnamaldehyde] |  |  |  |  |  |  |  |  |  |  |  |  |  |  |  |  |  |  |  |  | Spectrum of antibacterial activity [18]: antibacterial activity on both Gram-positive bacteria and Gram-negative bacteria
3 | Gentamicin | S | 25 | S | 21 | S | 21 | S | 25 | S | 25 | S | 27 | S | 21 | R | 16 | R | 0 | S | 26 | Cat. [11]: S; D [11]: 28; Cat. [12]: S; D [12]: 27; Category [13]: R; Diameter [13]: 15; Category [14]: R; Diameter [14]: 14; Category [19]: S; Category [20]: S; Category [15]: S; Category [16]: S; Category [17]: R
